Consider ten compounds from patent publication US9688702B2, “Alpha-amino boronic acid derivatives, selective immunoproteasome inhibitors” (Ares Trading S.A, priority 2011, dated 2017).

Experiment [1] has as its target LMP7 (purified human immuno proteasome) (Homo sapiens, UniProt P28062). The experiment in a line: Determination of LMP7 activity (fluorescence intensity assay, Suc-LLVY-AMC). The experiment is classed as biochemical. To be noted: for IC50: 40 μM Suc-LLVY-AMC, 37° C. How it is done:
Measurement of LMP7 inhibition is performed in 384 well format based on fluorescence intensity assay.
Purified human immuno proteasome (0.5 nM) and serial diluted compounds in DMSO (range of concentrations from 10 μM to 38 pM) or controls (0.5% DMSO) are incubated for 30 minutes at 37° C. in assay buffer containing 50 mM Tris pH 7.4 and 0.03% SDS. The reaction is initiated by the addition of the fluorogenic peptide substrate, Suc-LLVY-AMC (Bachem I-1395), at a concentration of 40 μM. After 90 minutes of incubation at 37° C., fluorescence intensity is measured at λex=350 nm and λem=450 nm with a fluorescence reader (BMG Pherastar reader or equivalent).
Purified human immuno proteasome (0.25 nM) and serial diluted compounds in DMSO (range of concentrations from 10 μM to 38 pM) or controls (0.5% DMSO) are incubated for 30 minutes at 37° C. in assay buffer containing 50 mM Tris pH 7.4 and 0.03% SDS. The reaction is initiated by the addition of the fluorogenic peptide substrate, Suc-LLVY-AMC (Bachem I-1395), at a concentration of 40 μM. After 90 minutes of incubation at 37° C., fluorescence intensity is measured at λex=350 nm and λem=450 nm with a fluorescence reader (BMG Pherastar reader or equivalent).

The target of experiment [2] is Beta5 (purified human constitutive proteasome) (Homo sapiens, UniProt P28074). Put plainly: Determination of Beta5 activity (fluorescence intensity assay, Suc-LLVY-AMC). Type of experiment: biochemical. To be noted: purified human constitutive proteasome 1.0 nM, 40 μM Suc-LLVY-AMC, 37° C. How it is done:
Measurement of Beta5 inhibition is performed in 384 well format based on fluorescence intensity assay.
Purified human constitutive proteasome (1.0 nM) and serial diluted compounds in DMSO (range of concentrations from 10 μM to 38 pM) or controls (0.5% DMSO) are incubated for 30 minutes at 37° C. in assay buffer containing 50 mM Tris pH 7.4 and 0.03% SDS. The reaction is initiated by the addition of the fluorogenic peptide substrate, Suc-LLVY-AMC (Bachem 1-1395), at a concentration of 40 μM. After 90 minutes of incubation at 37° C., fluorescence intensity is measured at λex=350 nm and λem=450 nm with a fluorescence reader (BMG Pherastar reader or equivalent).

The mark [3] stands for this setting: purified human immuno proteasome 0.5 nM.

A value given as a limit tells only on which side of the number the result lay.

Turning to `O=C(CCn1cc(-c2ccccc2)nn1)N[C@@H](Cc1ccsc1)B(O)O` [Example 40, [(1R)-1-{[3-(4-phenyl-1H-1,2,3-triazol-1-yl)propanoyl]amino}-2-(3-thienyl)ethyl]boronic acid], the “Selectivity LMP7 vs Beta5” value in experiment [1] is reported as “++ (++: 10 < Selectivity < 30)”. For the same compound, the IC50 is < 0.05 µM in experiment [1] (setting [3]) and 0.05 to 0.5 µM in experiment [2].

With `CCc1cccc(C[C@H](NC(=O)[C@H](CC(=O)c2ccccc2)c2ccc(Cl)cc2)B(O)O)c1` (single isomer, unassigned) [Example 15], the “Selectivity LMP7 vs Beta5” value in experiment [1] is listed as “+++ (+++: Selectivity > 30)”. The half-inhibitory concentration (IC50) in experiment [1] (setting [3]) is 0.05 to 0.5 µM; in experiment [2], > 5 µM.

Turning to `CCc1cccc(C[C@H](NC(=O)CCn2cc(-c3ccccc3OC)nn2)B(O)O)c1` [Example 73, (R)-(2-(3-ethylphenyl)-1-(3-(4-(2-methoxyphenyl)-1H-1,2,3-triazol-1-yl)propanamido)ethyl)boronic acid], in experiment [1], the “Selectivity LMP7 vs Beta5” value is on record as “+++ (+++: Selectivity > 30)”. In addition, the IC50 in experiment [1] (setting [3]) was < 0.05 µM; in experiment [2] it was 0.05 to 0.5 µM.

In the case of `O=C(CCn1cc(-c2ccccc2)nn1)N[C@@H](Cc1coc2ccccc12)B(O)O` [Example 89, (R)-(2-(benzofuran-3-yl)-1-(3-(4-phenyl-1H-1,2,3-triazol-1-yl)propanamido)ethyl)boronic acid], the “Selectivity LMP7 vs Beta5” value in experiment [1] is on record as “++ (++: 10 < Selectivity < 30)”. The IC50 in experiment [1] (purified human immuno proteasome 0.25 nM (examples 79, 80, 83, 84, 85, 87, 88, 89, 90, 91, 93, 94, 96, 97, 101 and 110)) was < 0.05 µM; in experiment [2] it was < 0.05 µM.

Consider `COc1ccc(-n2cc(CCC(=O)N[C@@H](Cc3ccc4ccccc4c3)B(O)O)nn2)cc1` [Example 100, (R)-(1-(3-(1-(4-methoxyphenyl)-1H-1,2,3-triazol-4-yl)propanamido)-2-(naphthalen-2-yl)ethyl)boronic acid], for which, in experiment [1], the “Selectivity LMP7 vs Beta5” value was “++ (++: 10 < Selectivity < 30)”. Further, the IC50 is < 0.05 µM in experiment [1] (setting [3]) and 0.05 to 0.5 µM in experiment [2].

As to `COc1ccc2occ(C[C@H](NC(=O)CCn3c(=O)sc4ccccc43)B(O)O)c2c1` [Example 109, (R)-(2-(5-methoxybenzofuran-3-yl)-1-(3-(2-oxobenzo[d]thiazol-3(2H)-yl)propanamido)ethyl)boronic acid], the “Selectivity LMP7 vs Beta5” value in experiment [1] was “+ (+: Selectivity < 10)”. In addition, the IC50 in experiment [1] (setting [3]) was < 0.05 µM; in experiment [2], 0.05 to 0.5 µM.

Regarding `CCc1cccc(C[C@H](NC(=O)CCC(=O)c2ccc(OC)cc2OC)B(O)O)c1` [Example 11, [(1R)-1-{[4-(2,4-dimethoxyphenyl)-4-oxobutanoyl]amino}-2-(3-ethylphenyl)ethyl]boronic acid], the “Selectivity LMP7 vs Beta5” value in experiment [1] was “+++ (+++: Selectivity > 30)”. The half-maximal inhibitory concentration (IC50) is 0.05 to 0.5 µM in experiment [1] (setting [3]) and > 5 µM in experiment [2].

As for `COc1ccc(C(=O)CCC(=O)N[C@@H](Cc2ccc(OC(F)(F)F)cc2)B(O)O)cc1` [Example 43, (R)-(1-(4-(4-methoxyphenyl)-4-oxobutanamido)-2-(4-(trifluoromethoxy)phenyl)ethyl)boronic acid], the “Selectivity LMP7 vs Beta5” value in experiment [1] is listed as “++ (++: 10 < Selectivity < 30)”. Also, the IC50 in experiment [1] (setting [3]) fell in the range of 0.05 to 0.5 µM; in experiment [2] it was 0.5 to 5 µM.

As for `COc1ccc(C(=O)CCC(=O)N[C@@H](Cc2ccsc2)B(O)O)cc1` [Example 9, [(1R)-1-{[4-(4-methoxyphenyl)-4-oxobutanoyl]amino}-2-(3-thienyl)ethyl]boronic acid], in experiment [1], the “Selectivity LMP7 vs Beta5” value is on record as “++ (++: 10 < Selectivity < 30)”. In addition, the IC50 in experiment [1] (setting [3]) was in the range of 0.05 to 0.5 µM; in experiment [2], 0.5 to 5 µM.

Regarding `CCc1cccc(C[C@H](NC(=O)CCn2cc(-c3cccnc3)nn2)B(O)O)c1` [Example 76, (R)-(2-(3-ethylphenyl)-1-(3-(4-(pyridin-3-yl)-1H-1,2,3-triazol-1-yl)propanamido)ethyl)boronic acid], the “Selectivity LMP7 vs Beta5” value in experiment [1] was “+++ (+++: Selectivity > 30)”. The values for the IC50 in experiment [1] (setting [3]) and in experiment [2] were < 0.05 µM and 0.5 to 5 µM, respectively.

As a reminder, the IC50 is the concentration at which inhibition is half-maximal.
